In patent US20060258561A1, “Novel NPH insulin preparations” (Novo Nordisk A/S, priority 2003, published 2006):
Like-named read-outs stand apart in the source and are kept apart here.

Assays:
[1] = NPH-insulin crystallisation in the presence of ligand (co-crystallisation); format: physicochemical; details: human insulin NPH crystals grown overnight with ligand equimolar to Zn2+, pH 7.3
Experimental: Preparation of NPH-insulin in the presence of ligands for the His^B10 Zn^2+-site of the R-state insulin hexamer.
Preparations are prepared by mixing equal volumes of the following two solutions: a) 1.2 mM human insulin, 0.46 mM Zn^2+, 28 mM phosphate, 1.6% glycerol, 0.15% m-cresol, 0.065% phenol, and 0.46 mM ligand for the HisB10 Zn^2+-site (see below), optionally the ligand was added as a 9.2 mM DMSO solution, pH 7.5; and b) 0.636 mg/mL protamine sulphate 1.6% glycerol, 0.15% m-cresol, 0.065% phenol, pH 6. The NPH-crystals grow overnight from the resulting suspension, pH 7.3.

[2] = target: T1, R-state His^B10 Zn^2+ site of insulin R6 hexamers (Homo sapiens, UniProt P01308); test: TZD-assay: fluorescence displacement of 5-(4-dimethylaminobenzylidene)thiazolidine-2,4-dione from insulin R6 hexamers; format: binding
T1 construct: human insulin comprising additional amino acids, i.e. more than 51 amino acids
T1 sequence (P01308 25-54 limits assumed): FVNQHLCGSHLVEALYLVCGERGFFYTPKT
T1 sequence (P01308 90-110 limits assumed): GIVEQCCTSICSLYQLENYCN
Experimental: However, ligands with substantially higher affinity for the His^B10 Zn^2+-site may be found and characterized by using a fluorescence based competition assay which is based on the displacement of 5-(4-dimethylaminobenzylidene)-thiazolidine-2,4-dione from the R-state His^B10 Zn^2+-site by the incoming ligand in question.
TZD-Assay for Quantitation of Ligands Binding to the R-State His^B10 Zn^2+:
The binding affinity of ligands to the metal site of insulin R6 hexamers are measured in a fluorescense based displacement assay. The fluorescence of 5-(4-dimethylaminobenzylidene)thiazolidine-2,4-dione (TZD) which is a ligand for the metal site of insulin R6 is quenched upon displacement from the metal site to the solution. Titration of a ligand to a stock solution of insulin R6 hexamers with this compound mounted in the metal site allows the binding affinity of these ligands to be determined measuring the fluorescence at 455 nm upon excitation at 410 nm.
Stock solution: 0.02 mM human insulin, 0.007 mM Zn-acetate, 40 mM phenol, 0.01 mM TZD in 50 mM tris buffer adjusted to pH=8.0 with NaOH/ClO4^−.
The ligand is dissolved in DMSO to a concentration of 5 mM and added in aliquots to the stock solution to final concentrations of 0-250 μM.
Fluorescence measurements were carried out on a Perkin Elmer Spectrofluorometer LS50B. The main absorption band was excited at 410 nm and emission was detected at 455 nm. The resolution was 10 nm and 2.5 nm for excitation and emission, respectively.
This equation is fitted to the datapoints ΔF(455 nm))=ΔFmax*[ligand]free/(KD(app)*(1+[TZD]/KTZD)+[ligand]free)) KD(app) is the apparent dissociation constant and Fmax is the fluorescence at maximal ligand concentration. The value of KTZD is measured separately to 230 nM
Two different fitting-procedures can be used. One in which both parameters, KD(app) and Fmax, are adjusted to best fit the data and a second in which the value of Fmax is fixed (Fmax=1) and only KD(app) is adjusted. The given data are from the second fitting procedure. The Solver module of Microsoft Excel can be used to generate the fits from the datapoints.

[3] = target: T2, metal site of insulin R6 hexamers (Homo sapiens, UniProt P01308); details: taken from Huang et al., 1997, Biochemistry 36, 9878-9888; read-out: K4H3N; cited from earlier work
T2 construct: human insulin comprising additional amino acids, i.e. more than 51 amino acids
T2 sequence (P01308 25-54 limits assumed): as the sequence (P01308 25-54 limits assumed) above

[4] = human insulin R6 hexamers, 40 mM phenol, tris pH 8.0, apparent KD, fit with Fmax fixed, read-out: Kd as observed in the 5-(4-imethylaminobenzylidene)-thiazolidine-2,4-dione assay

Row | NPH-insulin crystal size [1] | Kd [2, 4] [nM] | melting point [°C] | SMILES | further results
1 | <2 μ | 38 | – | c1ccc(-c2ccc(Cn3ccc4cc(-c5nnn[nH]5)ccc43)cc2)cc1 [1-(4-Phenylbenzyl)-5-(1H-tetrazol-5-yl)-1H-indole] | –
2 | <2 μ | 174 | – | O=C(O)c1ccc(Cn2c3ccccc3c3cc(-c4nnn[nH]4)ccc32)cc1 [4-[3-(1H-Tetrazol-5-yl)-carbazol-9-ylmethyl]-benzoic acid] | –
3 | <2 μ | < 10 | – | Cc1cc(/C=C2\SC(=O)NC2=O)c(C)c2c1[nH]c1ccccc12 [5-(1,4-Dimethyl-9H-carbazol-3-ylmethylene)-thiazolidine-2,4-dione] | –
4 | 2-6 μ | < 10 | – | Cc1[nH]c2ccccc2c1/C=C1\SC(=O)NC1=O [5-(2-methyl-1H-indol-3-ylmethylene) thiazolidine-2,4-dione] | –
5 | 2 μ | 99 | – | O=C1NC(=O)C(Cc2cccc3ccccc23)S1 (centres unmarked) [5-Napthalen-1-ylmethyl-thiazolidine-2,4-dione] | –
6 | 4-10 μ | 21 | – | O=C1NC(=O)/C(=C/c2cccc3ccccc23)S1 [5-Napthalen-1-ylmethylene-thiazolidine-2,4-dione] | –
7 | 5-20 μ | 264 | – | O=C(O)c1cc2cc(Br)ccc2cc1O [7-Bromo-3-hydroxy-2-napthoic acid] | –
8 | 1-3 μ | 68 | – | c1ccc(Cn2c3ccccc3c3cc(-c4nnn[nH]4)ccc32)cc1 [9-Benzyl-3-(1H-tetrazol-5-yl)-9H-carbazole] | –
9 | – | – | – | O=C(O)c1ccc(O)c([N+](=O)[O-])c1 [Example 4H3N, 4-hydroxy-3-nitrobenzoic acid] | Kd [3]: 50000 nM
10 | – | – | 256 | COc1cc(/C=C2\SC(=O)NC2=O)cc(I)c1O [Example 167, 5-(4-Hydroxy-3-iodo-5-methoxybenzylidene)thiazolidine-2,4-dione] | –
11 | – | – | 310 to 314 | O=C1NC(=O)/C(=C/c2ccc3cc(O)ccc3c2)S1 [Example 171, 5-(6-Hydroxy-2-naphthylmethylene) thiazolidine-2,4-dione] | –
12 | – | – | 330 to 333 | O=C1NC(=O)C(=Cc2c[nH]c3ccc([N+](=O)[O-])cc23)S1 [Example 199, 5-(5-Nitro-1H-indol-3-ylmethylene)thiazolidine-2,4-dione] | –
13 | – | – | 331 to 333 | COc1cc(O)cc(OC)c1/C=C1\SC(=O)NC1=O [Example 234, 5-(4-Hydroxy-2,6-dimethoxybenzylidene)thiazolidine-2,4-dione] | –
14 | – | – | 104 to 105 | Cc1cccc(C)c1/C=C1\SC(=O)NC1=O [Example 235, 5-(2,6-Dimethylbenzylidene)thiazolidine-2,4-dione] | –
15 | – | – | 241 to 242 | COc1cccc(OC)c1/C=C1\SC(=O)NC1=O [Example 236, 5-(2,6-Dimethoxybenzylidene)thiazolidine-2,4-dione] | –
16 | – | – | 255 to 256 | COc1cc(OCc2c(F)cccc2[N+](=O)[O-])cc(OC)c1/C=C1\SC(=O)NC1=O [Example 237, 5-[4-(2-Fluoro-6-nitrobenzyloxy)-2,6-dimethoxybenzylidene]thiazolidine-2,4-dione] | –
17 | – | – | 265 to 266 | O=C1NC(=O)/C(=C/c2cc3ccccc3o2)S1 [Example 238, 5-Benzofuran-2-ylmethylenethiazolidine-2,4-dione] | –
18 | – | – | 259 to 263 | CN(C)c1ccc(/C=C/C=C2\SC(=O)NC2=O)cc1 [Example 239, 5-[3-(4-Dimethylaminophenyl)allylidene]thiazolidine-2,4-dione] | –
19 | – | – | 203 to 210 | CC(/C=C1\SC(=O)NC1=O)=C\c1ccccc1 [Example 240, 5-(2-Methyl-3-phenylallylidene)thiazolidine-2,4-dione] | –
20 | – | – | 338 to 347 | O=C1NC(=O)/C(=C/c2cc3ccccc3[nH]c2=O)S1 [Example 242, 5-(2-Oxo-1,2-dihydroquinolin-3-ylmethylene)thiazolidine-2,4-dione] | –
21 | – | – | 200 to 202 | c1cc(COc2ccc3ccccc3c2)cc(-c2nnn[nH]2)c1 [Example 572, 5-(3-(Naphthalen-2-yloxymethyl)-phenyl)-1H-tetrazole] | –
22 | – | – | – | CN(C)c1ccc(C=C2SC(O)=NC2=O)cc1 [TZD, 5-(4-dimethylaminobenzylidene)-thiazolidine-2,4-dione, reference compound] | Kd ([2]; measured separately, read-out: KTZD): 230 nM
23 | 2-10 μ | 11 | – | O=C(O)COc1ccc(/C=C2\SC(=O)NC2=O)c2ccccc12 [[4-(2,4-Dioxothiazolidin-5-ylidenemethyl)-naphthalen-1-yloxy]-acetic acid] | –
